# Tests used:
# [1] = molecular target: T1, Ribonuclease T1 (Aspergillus oryzae, UniProt P00651); test: Visual detection ribonuclease assay, cleavage of Substrate ODN by RNase T1; format: biochemical; parameters: key to Sensitivity of Substrate ODN to Ribonuclease T1, relative signal intensity: +++ = maximum intensity; ++ = moderate intensity; + = faint but above background; − = negative (identical to background); details: Substrate 500 nM; for Sensitivity of Substrate ODN to Ribonuclease T1, relative signal intensity: visual inspection, UV excitation, 37° C. 60 minutes
# T1 sequence (P00651 27-130): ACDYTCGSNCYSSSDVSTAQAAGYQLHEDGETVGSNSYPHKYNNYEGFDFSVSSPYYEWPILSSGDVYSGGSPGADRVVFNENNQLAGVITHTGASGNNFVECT
# Outline: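 Substrate ODNs at 500 nM in 1× Assay Buffer; RNase T1 serially diluted to final 0.001, 0.0001 and 0.00001 units/ml. After incubation (60 min at 37 °C, or 10 min at room temperature), fluorescence under UV excitation was inspected by eye and scored +++, ++, + or − by relative intensity.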
# [2] = molecular target: T2, RNase 1 (Escherichia coli, UniProt P21338); test: Visual detection ribonuclease assay, cleavage of Substrate by RNase 1; format: biochemical, E. coli; details: final dilution factors of stock 10^−2 to 10^−7; Substrate 500 nM; room temperature 10 minutes
# T2 sequence (P21338 24-268): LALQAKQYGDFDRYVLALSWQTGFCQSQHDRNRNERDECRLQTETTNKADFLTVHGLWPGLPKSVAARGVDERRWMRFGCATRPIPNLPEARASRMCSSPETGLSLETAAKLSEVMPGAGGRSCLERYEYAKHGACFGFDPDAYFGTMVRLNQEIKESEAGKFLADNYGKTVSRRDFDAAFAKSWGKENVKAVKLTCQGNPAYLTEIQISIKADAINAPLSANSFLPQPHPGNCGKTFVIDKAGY
# Description: It is commonly accepted that fluorometry provides for high sensitivity. To be useful, the visual method must also offer high sensitivity. Assays were conducted using the method of the invention with visual detection. Substrate SEQ ID NO:30 was mixed in 1× Assay Buffer at a concentration of 500 nM (50 pmoles ODN in 100 ul volume) in thin-walled, UV transparent tubes. […] Dilutions of stock RNase A, RNase 1, and RNase T1 were made in water. Undiluted and diluted nuclease (1 ul) was added to respective 100 ul Assay Mixes resulting in final dilution factors of 10^−2, 10^−3, 10^−4, 10^−5, 10^−6, and 10^−7. Assays were incubated at room temperature for 10 minutes and visually examined for fluorescence emission with UV excitation. […] The experiment took about 30 minutes to perform, including 15 minutes to set-up serial dilutions, 10 minutes incubation, and 5 minutes to visualize and photograph. Thus the method of the invention allows for a rapid, simple, and convenient visual assay for the presence of ribonuclease activity.
# [3] = molecular target: T2, RNase 1; test: Fluorometric detection nuclease assay, RNase 1; format: biochemical, E. coli; details: Substrate 50 nM, 37° C. 1 hour
# Description: Nuclease assays were conducted using the method of the invention. The Substrate (SEQ ID NO:30) was mixed in 1× Assay Buffer at a concentration of 50 nM (150 pmoles oligonucleotide in 3 mls volume). Test nucleases were added to respective Assay Mixes, including 1 ul of RNase A (1 ug), 1 ul of RNase 1 (100 units), or 1 ul of RNase T1 (1000 units). […] Assays were set up directly in cuvettes as follows:
# Assay Mixes were incubated at 37° C. for 1 hour. Assays were transferred to cuvettes and fluorescence emission at 520 nm was measured using a PTI fluorometer with 490 nm excitation. Substrate SEQ ID NO:30, a preferred Substrate of the invention, reacted with (i.e., detected) all three RNase enzymes, verifying that Substrate compositions of the invention are sensitive to a variety of RNase enzymes.
# Assays were conducted using the method of the invention with fluorometric detection. Substrate SEQ ID NO:30 was mixed in 1× Assay Buffer at a concentration of 50 nM (50 pmoles ODN in 1.0 ml volume) in RNase-free disposable cuvettes. […] Dilutions of stock RNase A, RNase 1, and RNase T1 were made in water. […] Assays were incubated at 37° C. for 1 hour and examined for fluorescence emission at 520 nm using 490 nm excitation in a PTI fluorometer. […]
# [4] = molecular target: T3, Ribonuclease A (Bos taurus, UniProt P61823); test: Visual detection ribonuclease assay, cleavage of Substrate ODN by RNase A; format: biochemical, mammalian; parameters: key to Sensitivity of Substrate ODN to Ribonuclease A, relative signal intensity: +++ = maximum intensity; ++ = moderate intensity; + = faint but above background; − = negative (identical to background); details: Substrate 500 nM; for Sensitivity of Substrate ODN to Ribonuclease A, relative signal intensity: visual inspection, UV excitation, 37° C. 60 minutes
# T3 sequence (P61823 27-150): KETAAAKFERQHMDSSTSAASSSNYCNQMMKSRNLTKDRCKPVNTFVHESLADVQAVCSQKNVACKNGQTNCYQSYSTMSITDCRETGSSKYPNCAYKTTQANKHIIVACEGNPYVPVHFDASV
# Outline: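 Fluorogenic substrate oligonucleotides (500 nM for visual, 50 nM for fluorometric read) cut by serially diluted RNase A, 10 min at room temperature or 60 min at 37° C. Cleavage judged by fluorescence under UV excitation, scored +++ to − by relative intensity.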
# [5] = final dilution factors of stock 10^−2 to 10^−7, room temperature 10 minutes
substance,measurement,setting,value
"5′ Fluorescein-AauggcA-QSY-7 3′ (NAAUGGCAN; 5' fluorescein and 3' QSY-7 labels, nucleotide chemistry not given here) [SEQ ID NO:30]","Sensitivity of Substrate ODN to Ribonuclease T1, relative signal intensity",[1]; RNase T1 10^−3 units/ml,+++
same,"Sensitivity of Substrate ODN to Ribonuclease T1, relative signal intensity",[1]; RNase T1 10^−4 units/ml,+++
same,"Sensitivity of Substrate ODN to Ribonuclease T1, relative signal intensity",[1]; RNase T1 10^−5 units/ml,+++
same,Detection of RNase T1 activity by visual examination,[1]; [5],clearly detectable
same,Detection of RNase 1 activity by visual examination,[2],clearly detectable
same,Reactivity with RNase 1 (fluorometer),"[3]; RNase 1 33 units/ml, emission 520 nm, 490 nm excitation",reacted
same,"Enzyme Concentration, lowest tested reproducibly positive with signal:noise at least 2:1, RNase 1","[3]; fluorometric detection, dilution factor 10^−7",0.00001 units/ml
same,"Sensitivity of Substrate ODN to Ribonuclease A, relative signal intensity",[4]; RNase A 10 pg/ml,++
same,"Sensitivity of Substrate ODN to Ribonuclease A, relative signal intensity",[4]; RNase A 100 pg/ml,+++
same,"Sensitivity of Substrate ODN to Ribonuclease A, relative signal intensity",[4]; RNase A 1 ng/ml,+++
same,Fluorescence emission by visual inspection in the presence of RNase,"[4]; RNase A 1.0 ug/ml, room temperature 10 minutes, UV light source",visibly bright
same,Detection of RNase A activity by visual examination,[4]; [5],clearly detectable
same,Fluorescence emission by visual inspection in the absence of RNase (control reaction),"[4]; no nuclease, room temperature 10 minutes, UV light source",visually transparent (dark)

# From patent publication US7276337B2, “Compositions and methods for visual ribonuclease detection assays” (Integrated DNA Technologies, Inc., priority 2000, dated 2007)
